Assay results published in patent publication US20050214220A1, “Tumor model” (vivoPharm Pty Ltd., priority 2004, published 2005).

Tested on: HC11-NeuT mammary tumors
Experiment: In vivo efficacy in orthotopic HC11-NeuT mammary tumor model
Set-up: species or system Balb/c mice
Details: intravenous, 10 mg/kg body weight
From the text: HC11 cells were infected with the pBabe-puro retrovirus as described in Morgenstern and Land (1990) Nucl. Acids Res. 18:3587-3596. Cells were either infected with the pBabe-puro encoding oncogenic NeuT (pBabe-puro NeuT) or control pBabe-puro. In this case, oncogenic activation is by the ErbB2 receptor tyrosine kinase (RTK). The receptor is constitutively activated in a ligand-independent manner due to spontaneous dimerization.
High-titer, helper-free recombinant retroviruses were produced from BOSC-23 cells transiently transfected with plasmid DNA, using the CaPO4 technique, as described in Pear et al. (1993) Proc. Natl. Acad. Sci. 90:8392-8396. HC11 cells were infected by exposure to filtered conditioned medium from 24-48 h transfected BOSC-23 cultures, in the presence of 40 μg/ml polybrene. One day later the medium was replaced with fresh virus-containing medium. Cells were trypsinized, split 1:2 into HC11 growth medium containing 0.75 μg/ml puromycin and selected for 3-4 days. One day before harvesting, the cells were cultured in the absence of puromycin, trypsinized cells were washed, resuspended at 0.5-1.0×10^6 cells/10 μl PBS and implanted in the fat pad as described in below.
All experiments were performed with Balb/c mice. Transplants were performed on 8-10 week-old females. The anesthetized mouse was pinned on a cork board and scrubbed with 70% ethanol. […]

CC(=O)O[C@H]1C(=O)[C@@]2(C)[C@H]([C@H](OC(=O)c3ccccc3)[C@]3(O)C[C@H](OC(=O)[C@H](O)[C@@H](NC(=O)c4ccccc4)c4ccccc4)C(C)=C1C3(C)C)[C@]1(OC(C)=O)CO[C@@H]1C[C@@H]2O [Taxol]
reduction of tumor growth or cell proliferation: no significant reduction
